Here are results for 29 molecules from US8063065B2, “Azaindazole compounds as CCR1 receptor antagonists” (Boehringer Ingelheim International GmbH, priority 2008, dated 2011).

Molecules are shown by their SMILES.

This test concerns the target T1, CCR1 (Homo sapiens, UniProt P32246).
T1 sequence (P32246 1-355): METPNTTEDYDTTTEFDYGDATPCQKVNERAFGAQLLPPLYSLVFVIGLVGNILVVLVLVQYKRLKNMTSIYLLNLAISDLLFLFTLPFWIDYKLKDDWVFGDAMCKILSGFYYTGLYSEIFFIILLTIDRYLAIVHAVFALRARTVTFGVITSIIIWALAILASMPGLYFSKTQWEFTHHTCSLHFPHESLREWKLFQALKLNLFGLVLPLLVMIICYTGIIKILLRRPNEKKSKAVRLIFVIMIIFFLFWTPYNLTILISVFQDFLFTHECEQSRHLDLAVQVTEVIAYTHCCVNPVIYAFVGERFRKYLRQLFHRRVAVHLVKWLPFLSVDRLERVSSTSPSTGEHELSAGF
As to the kind of experiment: Method B: calcium flux in CCR1 transfected cells (Calcium 4 dye, […] FDSS6000), block of the CCR1/MIP-1α interaction. The class given is cell-based. The following applies: Method B: Calcium 4 dye, MIP-1alpha at EC80. The essentials: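 Non-adherent cells stably expressing CCR1 and G-alpha-16 were loaded with Calcium 4 dye plus probenecid for 1 h at room temperature. Compounds (top 3,000 nM, 4-fold, 10 doses, 1% DMSO) in HBSS/20 mM HEPES pH 7.4 were incubated 30 min at 37 C, then 30 min at room temperature. MIP-1α at EC80 was added and calcium flux read on FDSS6000.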

In the case of `CC[C@H](NC(=O)c1cncc2c1cnn2-c1ccc(F)cc1)c1ccc(OC)c(S(C)(=O)=O)c1` [1-(4-Fluorophenyl)-1H-pyrazolo[3,4-c]pyridine-4-carboxylic acid [(S)-1-(3-methanesulfonyl-4-methoxy-phenyl)-propyl]-amide], the IC50 was 6 nM.

Regarding `CC(C)(O)CNS(=O)(=O)c1ccc(CNC(=O)c2cncc3c2cnn3-c2ccc(F)cc2)cc1` [1-(4-Fluorophenyl)-1H-pyrazolo[3,4-c]pyridine-4-carboxylic acid 4-(2-hydroxy-2-methyl-propylsulfamoyl)-benzylamide], the IC50 was found to be 1 nM.

`CC[C@H](NC(=O)c1cncc2c1cnn2-c1ccc(F)cc1)c1ccnc([S+](C)[O-])c1` (stereo partly drawn) [1-(4-Fluorophenyl)-1H-pyrazolo[3,4-c]pyridine-4-carboxylic acid [(S)-1-(2-methanesulfinyl-pyridin-4-yl)-propyl]-amide]: the IC50 amounted to 0.5 nM.

Consider `CC[C@@H](NC(=O)c1cncc2c1cnn2-c1ccc(F)cc1)c1ccn(S(=O)(=O)c2ccc(C)cc2)c1` [1-(4-Fluorophenyl)-1H-pyrazolo[3,4-c]pyridine-4-carboxylic acid {(R)-1-[1-(toluene-4-sulfonyl)-1H-pyrrol-3-yl]-propyl}-amide], for which the IC50 came out at 23 nM.

For `CCC(NC(=O)c1cncc2c1cnn2-c1ccc(F)cc1)c1nc(C(N)=O)c(C)o1` (centres unmarked) [1-(4-Fluorophenyl)-1H-pyrazolo[3,4-c]pyridine-4-carboxylic acid [1-(4-carbamoyl-5-methyl-oxazol-2-yl)-propyl]-amide], the IC50 stood at 26 nM.

On to `CC[C@H](NC(=O)c1cncc2c1cnn2-c1ccc(F)cc1)c1nc(C(=O)OC)co1` [2-((S)-1-{[1-(4-Fluorophenyl)-1H-pyrazolo[3,4-c]pyridine-4-carbonyl]-amino}-propyl)-oxazole-4-carboxylic acid methyl ester], for which the IC50 was determined as 38 nM.

As for `CC[C@H](NC(=O)c1cncc2c1cnn2-c1ccc(F)cc1)c1ccnc(S(=O)(=O)CCC(=O)OC)c1` [3-[4-((S)-1-{[1-(4-Fluorophenyl)-1H-pyrazolo[3,4-c]pyridine-4-carbonyl]-amino}-propyl)-pyridine-2-sulfonyl]-propionic acid methyl ester], the IC50 was 1 nM.

Consider `CS(=O)(=O)c1cc([C@H](CC2COC(=O)O2)NC(=O)c2cncc3c2cnn3-c2ccc(F)cc2)ccn1` (stereo partly drawn) [1-(4-Fluorophenyl)-1H-pyrazolo[3,4-c]pyridine-4-carboxylic acid [(S)-1-(2-methanesulfonyl-pyridin-4-yl)-2-(2-oxo-1,3-dioxolan-4-yl)-ethyl]-amide], for which the IC50 was 6 nM.

As for `CC[C@H](NC(=O)c1cncc2c1cnn2-c1ccc(F)cc1)c1cnn(C)c1` [1-(4-Fluorophenyl)-1H-pyrazolo[3,4-c]pyridine-4-carboxylic acid [(S)-1-(1-methyl-1H-pyrazol-4-yl)-propyl]-amide], the IC50 is 11 nM.

For `CC[C@@H](NC(=O)c1cncc2c1cnn2-c1ccc(F)cc1)c1cc(S(C)(=O)=O)cn1C` [1-(4-Fluorophenyl)-1H-pyrazolo[3,4-c]pyridine-4-carboxylic acid [(R)-1-(4-methanesulfonyl-1-methyl-1H-pyrrol-2-yl)-propyl]-amide], the IC50 was 7 nM.

As for `O=C(NCc1ccc(Br)s1)c1cncc2c1cnn2-c1ccc(F)cc1` [1-(4-Fluorophenyl)-1H-pyrazolo[3,4-c]pyridine-4-carboxylic acid (5-bromo-thiophen-2-ylmethyl)-amide], the IC50 stood at 19 nM.

In the case of `CC[C@H](NC(=O)c1cncc2c1cnn2-c1ccc(F)cc1)c1cc(NC)nc(S(C)(=O)=O)c1` [1-(4-Fluorophenyl)-1H-pyrazolo[3,4-c]pyridine-4-carboxylic acid [(S)-1-(2-methanesulfonyl-6-methylamino-pyridin-4-yl)-propyl]-amide], the IC50 is 0.3 nM.

Regarding `CC[C@H](NC(=O)c1cncc2c1cnn2-c1ccc(F)cc1)c1ccc(S(C)(=O)=O)c(OC)c1` [1-(4-Fluorophenyl)-1H-pyrazolo[3,4-c]pyridine-4-carboxylic acid [(S)-1-(4-methanesulfonyl-3-methoxy-phenyl)-propyl]-amide], the IC50 amounted to 0.2 nM.

For the molecule `CC[C@H](NC(=O)c1cncc2c1cnn2-c1ccc(F)cc1)c1ccnc(S(=O)(=O)CC)c1` [1-(4-Fluorophenyl)-1H-pyrazolo[3,4-c]pyridine-4-carboxylic acid [(S)-1-(2-ethanesulfonyl-pyridin-4-yl)-propyl]-amide], the IC50 is 0.2 nM.

As to `CC[C@H](NC(=O)c1cncc2c1cnn2-c1ccc(F)cc1)c1cnc(SC)o1` [1-(4-Fluorophenyl)-1H-pyrazolo[3,4-c]pyridine-4-carboxylic acid [(S)-1-(2-methylsulfanyl-oxazol-5-yl)-propyl]-amide], the IC50 came to 1 nM.

Consider `CCOC(=O)Cn1ccc([C@H](CC)NC(=O)c2cncc3c2cnn3-c2ccc(F)cc2)n1` [[3-((S)-1-{[1-(4-Fluorophenyl)-1H-pyrazolo[3,4-c]pyridine-4-carbonyl]-amino}-propyl)-pyrazol-1-yl]-acetic acid ethyl ester], for which the IC50 stood at 11 nM.

Take `CC[C@H](NC(=O)c1cncc2c1cnn2-c1ccc(F)cc1)c1ccn(S(C)(=O)=O)n1` [1-(4-Fluorophenyl)-1H-pyrazolo[3,4-c]pyridine-4-carboxylic acid [(S)-1-(1-methanesulfonyl-1H-pyrazol-3-yl)-propyl]-amide]: the IC50 came out at 3 nM.

Take `C[C@H](NC(=O)c1cncc2c1cnn2-c1ccc(F)cc1)c1cc(N(C)C)nc(S(C)(=O)=O)c1` [1-(4-Fluorophenyl)-1H-pyrazolo[3,4-c]pyridine-4-carboxylic acid [(S)-1-(2-dimethylamino-6-methanesulfonyl-pyridin-4-yl)-ethyl]-amide]: the IC50 was found to be 0.2 nM.

Regarding `CC[C@@H](NC(=O)c1cncc2c1cnn2-c1ccc(F)cc1)c1cc(S(C)(=O)=O)cn1S(=O)(=O)c1ccc(C)cc1` [1-(4-Fluorophenyl)-1H-pyrazolo[3,4-c]pyridine-4-carboxylic acid {(R)-1-[4-methanesulfonyl-1-(toluene-4-sulfonyl)-1H-pyrrol-2-yl]-propyl}-amide], the IC50 came to 16 nM.

Turning to `CSc1ncc([C@H](C)NC(=O)c2cncc3c2cnn3-c2ccc(F)cc2)o1` [1-(4-Fluorophenyl)-1H-pyrazolo[3,4-c]pyridine-4-carboxylic acid [(S)-1-(2-methylsulfanyl-oxazol-5-yl)-ethyl]-amide], the 50% inhibitory concentration (IC50) turned out to be 6 nM.

Take `CC[C@H](NC(=O)c1cncc2c1cnn2-c1ccc(F)cc1)c1cc(S(C)(=O)=O)[nH]c(=O)c1` [1-(4-Fluorophenyl)-1H-pyrazolo[3,4-c]pyridine-4-carboxylic acid [(S)-1-(6-methanesulfonyl-2-oxo-1,2-dihydropyridin-4-yl)-propyl]-amide]: the IC50 amounted to 0.3 nM.

Consider `CC[C@H](NC(=O)c1cncc2c1cnn2-c1ccc(F)cc1)c1cnc(S(C)(=O)=O)s1` [1-(4-Fluorophenyl)-1H-pyrazolo[3,4-c]pyridine-4-carboxylic acid [(S)-1-(2-methanesulfonyl-thiazol-5-yl)-propyl]-amide], for which the IC50 was found to be 0.6 nM.

In the case of `CC[C@H](NC(=O)c1cncc2c1cnn2-c1ccc(F)cc1)c1ccnc(N2CCN(C)CC2)c1` [1-(4-Fluorophenyl)-1H-pyrazolo[3,4-c]pyridine-4-carboxylic acid {(S)-1-[2-(4-methyl-piperazin-1-yl)-pyridin-4-yl]-propyl}-amide], the IC50 amounted to 8 nM.

As to `CCC(NC(=O)c1cncc2c1cnn2-c1ccc(F)cc1)c1nc(C(=O)NC)co1` (centres unmarked) [1-(4-Fluorophenyl)-1H-pyrazolo[3,4-c]pyridine-4-carboxylic acid [1-(4-methylcarbamoyl-oxazol-2-yl)-propyl]-amide], the IC50 turned out to be 16 nM.

As for `CC[C@H](NC(=O)c1cncc2c1cnn2-c1ccc(F)cc1)c1ccc(S(=O)(=O)CC)nc1` [1-(4-Fluorophenyl)-1H-pyrazolo[3,4-c]pyridine-4-carboxylic acid [(S)-1-(6-ethanesulfonyl-pyridin-3-yl)-propyl]-amide], the IC50 was determined as 0.3 nM.

Consider `CC[C@H](NC(=O)c1cncc2c1cnn2-c1ccc(F)cc1)c1cn[nH]c1` [1-(4-Fluorophenyl)-1H-pyrazolo[3,4-c]pyridine-4-carboxylic acid [(S)-1-(1H-pyrazol-4-yl)-propyl]-amide], for which the IC50 was found to be 36 nM.

As for `CC[C@H](NC(=O)c1cncc2c1cnn2-c1ccc(F)cc1)c1cc(S(C)(=O)=O)cs1` [1-(4-Fluorophenyl)-1H-pyrazolo[3,4-c]pyridine-4-carboxylic acid [(S)-1-(4-methanesulfonyl-thiophen-2-yl)-propyl]-amide], the IC50 is 0.1 nM.

In the case of `C=CC[C@H](NC(=O)c1cncc2c1cnn2-c1ccc(F)cc1)c1ccnc(S(C)(=O)=O)c1` [1-(4-Fluorophenyl)-1H-pyrazolo[3,4-c]pyridine-4-carboxylic acid [(S)-1-(2-methanesulfonyl-pyridin-4-yl)-but-3-enyl]-amide], the IC50 worked out at 0.3 nM.

As for `CC[C@H](NC(=O)c1cncc2c1cnn2-c1ccc(F)cc1)c1ccnc(N2CCC(F)(F)CC2)c1` [1-(4-Fluorophenyl)-1H-pyrazolo[3,4-c]pyridine-4-carboxylic acid [(S)-1-(4,4-difluoro-3,4,5,6-tetrahydro-2H-[1,2′]bipyridinyl-4′-yl)-propyl]-amide], the IC50 was determined as 3 nM.

The IC50 is the point on the concentration scale where inhibition reaches its midpoint.
